According to PubChem BioAssay (NCI):
Values after ≈ are worked out from the molar mass of the structure shown.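 Five concentrations, 48 hours, 96-well plates. GI50: concentration for 50% inhibition of growth. TGI: total growth inhibition.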

Assays:
Experiment in all cases: NCI tumour cell line growth inhibition, 48 h
A549 NSCLC = system: A549 NSCLC
NCI-H522 lung = system: NCI-H522 lung
HT29 colon = system: HT29 colon
NCI-H23 lung = system: NCI-H23 lung
HCT-116 colon = system: HCT-116 colon
SN12C renal = system: SN12C renal
HOP-92 NSCLC = system: HOP-92 NSCLC
MDA-MB-435 = system: MDA-MB-435
UO-31 renal = system: UO-31 renal
IGROV1 ovarian = system: IGROV1 ovarian

Compound | TGI (A549 NSCLC) | TGI (NCI-H522 lung) | TGI (HT29 colon) | TGI (NCI-H23 lung) | TGI (HCT-116 colon) | TGI (SN12C renal) | TGI (HOP-92 NSCLC) | TGI (MDA-MB-435) | TGI (UO-31 renal) | TGI (IGROV1 ovarian) | GI50 (A549 NSCLC) | GI50 (NCI-H522 lung) | GI50 (NCI-H23 lung) | GI50 (HCT-116 colon) | GI50 (SN12C renal) | GI50 (HOP-92 NSCLC) | GI50 (MDA-MB-435) | GI50 (UO-31 renal)
Cc1nc2ccc(S(=O)(=O)O)cc2c(=O)n1-c1ccc(C(=O)NN2C(=O)C(Cl)C2c2cccs2)cc1 (centres undefined) | > 100 µM | > 100 µM | > 100 µM | > 100 µM | > 100 µM | > 100 µM | > 100 µM | 89.8 µM | > 100 µM |  |  |  |  |  |  |  |  | 
COC(=O)[C@@H]1Cc2ccc(OC)c(c2)OCCC(=O)N1 | > 100 µM | > 100 µM | > 100 µM | > 100 µM | > 100 µM |  |  | > 100 µM | > 100 µM | > 100 µM |  |  |  |  |  |  |  | 
CCOC(=O)c1nc2ccc(C(F)(F)F)cc2nc1Oc1ccc(OC)cc1 | > 100 µM |  | > 100 µM |  | > 100 µM | > 100 µM | > 100 µM | > 100 µM | > 100 µM | > 100 µM |  |  |  |  |  |  |  | 
Cc1csc(=Nc2ccccc2)n1CCC(O)(P(=O)(O)O)P(=O)(O)O | > 100 µM | > 100 µM | > 100 µM | > 100 µM | > 100 µM |  |  |  | > 100 µM | > 100 µM |  |  |  |  |  |  |  | 
COC(=O)C1(CCCCl)CCCN1C(=O)OC(C)(C)C (centres undefined) | > 100 µM |  | > 100 µM | > 100 µM | > 100 µM | > 100 µM |  | > 100 µM | > 100 µM | > 100 µM |  |  |  |  |  |  |  | 
CC(=O)Nc1nc2c(=O)c3ccccc3sc2s1 | > 100 µM |  | > 100 µM | > 100 µM | > 100 µM | > 100 µM |  |  | > 100 µM | > 100 µM |  |  |  |  |  |  |  | 
CCCCCCC1OC23OC1CCC2C(O)CCC3O (centres undefined) |  | > 100 µM | > 100 µM | > 100 µM | > 100 µM | > 100 µM |  | > 100 µM | > 100 µM | > 100 µM |  |  |  |  |  |  |  | 
CCN(CC)/[N+]([O-])=N/OS(=O)(=O)N(C)C | > 100 µM | > 100 µM | > 100 µM | > 100 µM | > 100 µM | > 100 µM | > 100 µM | > 100 µM |  | > 100 µM |  |  |  |  |  |  |  | 
CC1(c2ccc(Cl)cc2)C=C(c2ccc(Cl)cc2)C(C#N)=C(C(C#N)C#N)N1 (centres undefined) | 42.2 µM |  | 32.8 µM | 32.3 µM | 27.3 µM | 33.5 µM |  | 34.5 µM | 30.5 µM | 25.6 µM |  |  |  |  |  |  |  | 
Nc1nccc(NCC2(CO)CC(CCc3ccccc3)C2)n1 (centres undefined) | 39.7 µM | 26 µM | 23.9 µM | 41.4 µM | 23 µM | 60.2 µM |  | 28.7 µM | 32.3 µM | 33.3 µM |  |  |  |  |  |  |  | 
CC(=O)n1c2ccc(Br)cc2c2nc3ccccc3nc21 |  | > 100 µM | > 100 µM | > 100 µM | > 100 µM | > 100 µM | > 100 µM | > 100 µM | > 100 µM | > 100 µM |  |  |  |  |  |  |  | 
Cc1cc2nnn(C3CCCCO3)c2cc1C (centres undefined) | > 100 µM | > 100 µM | > 100 µM | > 100 µM | > 100 µM | > 100 µM |  | > 100 µM | > 100 µM | > 100 µM |  |  |  |  |  |  |  | 
O=C(c1c(F)c(F)c(F)c(F)c1F)n1c(=S)n(C(=O)c2c(F)c(F)c(F)c(F)c2F)c2ccccc21 |  |  | > 100 µM |  | > 100 µM | > 100 µM | > 100 µM |  | > 100 µM | > 100 µM |  |  |  |  |  |  |  | 
O=C1/C(=C/c2ccc(Br)s2)NC(=S)N1CN1CCCCC1 |  | 83.1 µM | > 100 µM | > 100 µM | > 100 µM | > 100 µM |  | > 100 µM | 76.3 µM | > 100 µM |  |  |  |  |  |  |  | 
COc1cc(Nc2nc3cc(C)ccc3nc2-c2ccccc2)cc(OC)c1OC | > 100 µM | 90.6 µM | 33.7 µM | 57 µM | 45.2 µM | > 100 µM | > 100 µM |  | 77.7 µM | > 100 µM |  |  |  |  |  |  |  | 
CC(C)(C)OC(=O)CC(NC(=O)OCc1ccccc1)NC(=O)OC(C)(C)C (centres undefined) |  |  |  |  |  |  |  |  |  |  | 35.2 µg/mL (≈ 89.2 µM) | 32.9 µg/mL (≈ 83.5 µM) | 39.1 µg/mL (≈ 99.2 µM) | 52.1 µg/mL (≈ 132 µM) | 51.9 µg/mL | 69.2 µg/mL (≈ 175 µM) | 87.9 µg/mL (≈ 223 µM) | 27 µg/mL (≈ 68.5 µM)
O=[N+]([O-])c1ccc2c3c1[C@@H]1O[C@@H]1c1cccc(c1-3)[C@@H]1O[C@H]21 | 31 µM | 3.33 µM | 14.7 µM | 11.6 µM | 5.95 µM | 15.7 µM | 28.6 µM | 5.22 µM |  | 2.72 µM |  |  |  |  | 3.36 µM |  |  | 
COC(=O)c1sc(=S)sc1SCc1cccc(CSc2sc(=S)sc2C(=O)OC)c1 |  | > 100 µM | > 100 µM | > 100 µM | > 100 µM | > 100 µM | 71.2 µM | > 100 µM | > 100 µM | > 100 µM |  |  |  |  |  |  |  | 
CCN(CC)c1ccc(Cl)c2c1C(O)(C(C)C)C2(C)C (centres undefined) | 35.1 µM | 29.9 µM | 24.5 µM | 29 µM | 27 µM | 30.5 µM |  |  | 32 µM | 27.8 µM |  |  |  |  |  |  |  | 
O=c1[nH]c2ccccc2c2oc3ccccc3c12 | > 100 µM | > 100 µM | > 100 µM | > 100 µM |  | > 100 µM | > 100 µM | > 100 µM | > 100 µM | > 100 µM |  |  |  |  |  |  |  | 
C#CCN(C(=O)C(F)(F)F)C(/C=C\C(=O)OC)(C(=O)OCC)C(=O)OCC | > 100 µM | > 100 µM | > 100 µM | > 100 µM |  | > 100 µM |  | > 100 µM | > 100 µM | > 100 µM |  |  |  |  |  |  |  | 
CN(CC(=O)Nc1ccccc1C(=O)O)c1ccccc1 | > 100 µM | > 100 µM | > 100 µM | > 100 µM | > 100 µM | > 100 µM | > 100 µM |  | > 100 µM | > 100 µM |  |  |  |  |  |  |  | 
CC(=O)Nc1ccc2c(c1)C(=O)c1ccccc1-2 | > 100 µM | > 100 µM | > 100 µM | > 100 µM | > 100 µM | > 100 µM |  |  | > 100 µM | > 100 µM |  |  |  |  |  |  |  | 
Cc1nn(C(=O)Cc2ccccc2)c2c1C(c1ccc(/C=C/c3ccccc3)cc1)SC(N)=N2 (centres undefined) | > 100 µM | > 100 µM | > 100 µM | > 100 µM | > 100 µM | > 100 µM |  | > 100 µM | > 100 µM | > 100 µM |  |  |  |  |  |  |  | 
CCOC(OCC)(OCC)C(Br)CC (centres undefined) | > 100 µM | > 100 µM | > 100 µM | > 100 µM | 19 µM | > 100 µM | > 100 µM |  | > 100 µM | > 100 µM |  |  |  |  |  |  |  | 
